26 compounds from US8933074B2, “1,2-disubstituted heterocyclic compounds” (FORUM Pharmaceuticals Inc., priority 2008, dated 2015) can be followed below.

As a reminder, the IC50 is the concentration at which inhibition is half-maximal.

This test deals with Human PDE10A1 (Homo sapiens, UniProt Q9Y233). In words: hPDE10A1 enzyme inhibition. The class given is biochemical. The conditions noted are these: [3H]-cAMP substrate, 20 minutes at 37° C.; read-out: hPDE10A1 IC50 Band. The procedure: 50 μl samples of serially diluted Human PDE10A1 enzyme were incubated with 50 μl of [^3H]-cAMP for 20 minutes (at 37° C.). Reactions were carried out in Greiner 96 deep well 1 ml master-block. The enzyme was diluted in 20 mM Tris HCl pH7.4 and [^3H]-cAMP was diluted in 10 mM MgCl2, 40 mM Tris.HCl pH 7.4. The reaction was terminated by denaturing the PDE enzyme (at 70° C.) after which [^3H]-5′-AMP was converted to [^3H]-adenosine by adding 25 μl snake venom nucleotidase and incubating for 10 minutes (at 37° C.). Adenosine, being neutral, was separated from charged cAMP or AMP by the addition of 200 μl Dowex resin. Samples were shaken for 20 minutes then centrifuged for 3 minutes at 2,500 r.p.m. 50 μl of supernatant was removed and added to 200 μl of MicroScint-20 in white plates (Greiner 96-well Optiplate) and shaken for 30 minutes before reading on Perkin Elmer TopCount Scintillation Counter.
Chain of Human PDE10A1 (Q9Y233 1-779 isoform Q9Y233-1): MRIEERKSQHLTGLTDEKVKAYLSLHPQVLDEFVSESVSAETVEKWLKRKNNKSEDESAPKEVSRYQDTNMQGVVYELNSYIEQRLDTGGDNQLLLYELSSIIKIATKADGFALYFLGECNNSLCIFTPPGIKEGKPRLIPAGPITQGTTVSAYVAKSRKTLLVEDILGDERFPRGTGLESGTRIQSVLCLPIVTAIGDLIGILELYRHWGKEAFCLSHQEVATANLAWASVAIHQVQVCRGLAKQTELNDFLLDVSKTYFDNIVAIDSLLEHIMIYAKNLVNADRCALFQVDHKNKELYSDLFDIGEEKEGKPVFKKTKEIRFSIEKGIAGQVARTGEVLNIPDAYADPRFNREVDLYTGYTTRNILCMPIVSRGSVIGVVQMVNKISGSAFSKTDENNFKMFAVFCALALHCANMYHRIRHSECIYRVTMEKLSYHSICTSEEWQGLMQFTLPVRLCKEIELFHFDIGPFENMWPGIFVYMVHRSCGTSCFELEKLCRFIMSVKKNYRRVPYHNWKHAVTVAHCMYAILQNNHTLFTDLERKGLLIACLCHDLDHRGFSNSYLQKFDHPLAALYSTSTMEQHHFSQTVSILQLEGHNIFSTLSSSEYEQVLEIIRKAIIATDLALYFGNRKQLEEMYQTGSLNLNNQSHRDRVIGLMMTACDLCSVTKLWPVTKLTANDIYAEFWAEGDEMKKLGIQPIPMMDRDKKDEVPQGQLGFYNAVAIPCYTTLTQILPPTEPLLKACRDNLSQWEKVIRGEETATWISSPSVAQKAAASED
To check inhibition profile 11 μl of serially diluted inhibitor was added to 50 μl of [^3H]-cAMP and 50 ul of diluted Human PDE10A1 and assay was carried out as in the enzyme activity assay. Data was analysed using Prism software (GraphPad Inc).
Regarding `CN1C(=O)C(c2ccncc2)=C(c2ccc(OCc3ccc4ccccc4n3)cc2)C1=O` [Example 11, 1-methyl-3-(pyridin-4-yl)-4-(4-(quinolin-2-ylmethoxy)phenyl)-1H-pyrrole-2,5-dione], the IC50 was more than 0.05 µM.
With `CC1(C)OC(=O)C(c2ccc(OCc3ccc4ccccc4n3)cc2)=C1c1ccncc1` [Example 23, 5,5-dimethyl-4-(pyridin-4-yl)-3-(4-(quinolin-2-ylmethoxy)phenyl)furan-2(5H)-one], the IC50 was not above 0.05 µM.
With `O=C1OC2(CC2)C(c2ccncc2)=C1c1ccc(OCc2ccc3ccccc3n2)cc1` [Example 26, 7-(Pyridin-4-yl)-6-(4-(quinolin-2-ylmethoxy)phenyl)-4-oxaspiro[2.4]hept-6-en-5-one] the figure was more than 0.05 µM.
For the compound `COc1ccc(C2=C(c3ccc(OCc4ccc5ccccc5n4)cc3)C(=O)OC2(C)C)cc1` [Example 33, 4-(4-methoxyphenyl)-5,5-dimethyl-3-(4-(quinolin-2-ylmethoxy)phenyl)furan-2(5H)-one], the IC50 was not above 0.05 µM.
Regarding `CC1(C)NC(=O)C(c2ccc(OCc3ccc4ccccc4n3)cc2)=C1c1ccncc1` [Example 63, 5,5-dimethyl-4-(pyridin-4-yl)-3-(4-(quinolin-2-ylmethoxy)phenyl)-1H-pyrrol-2(5H)-one], the IC50 was not above 0.05 µM.
On to `COc1ccc(C2=C(c3ccc(OCc4ccc5ccccc5n4)cc3)C(=O)N(C)C2(C)C)cc1` [Example 73, 4-(4-methoxyphenyl)-1,5,5-trimethyl-3-(4-(quinolin-2-ylmethoxy)phenyl)-1H-pyrrol-2(5H)-one], for which the IC50 is more than 0.05 µM.
For the compound `CC1(C)OC(c2ccncc2)=C(c2ccc(OCc3ccc4ccccc4n3)cc2)C1=O` [Example 125, 2,2-dimethyl-5-(pyridin-4-yl)-4-(4-(quinolin-2-ylmethoxy)phenyl) furan-3(2H)-one], the IC50 is not above 0.05 µM.
In the case of `COc1ccc(C2=C(c3ccc(OCc4ccc5ccccc5n4)cc3)C(=O)OC23CC3)cc1` [Example 126, 7-(4-methoxyphenyl)-6-(4-(quinolin-2-ylmethoxy)phenyl)-4-oxaspiro[2.4]hept-6-en-5-one], the IC50 was not above 0.05 µM.
For the compound `CC1(C)OC(c2ccncn2)=C(c2ccc(OCc3ccc4ccccc4n3)cc2)C1=O` [Example 127, 2,2-dimethyl-5-(pyrimidin-4-yl)-4-(4-(quinolin-2-ylmethoxy)phenyl)furan-3(2H)-one], the IC50 is more than 0.05 µM.
With `CC1(C)OC(c2ccnc(O)c2)=C(c2ccc(OCc3ccc4ccccc4n3)cc2)C1=O` [Example 130, 5-(2-hydroxypyridin-4-yl)-2,2-dimethyl-4-(4-(quinolin-2-ylmethoxy)phenyl)furan-3(2H)-one], the IC50 was not above 0.05 µM.
Under `COc1cc(C2=C(c3ccc(OCc4ccc5ccccc5n4)cc3)C(=O)C(C)(C)O2)ccn1` [Example 131, 5-(2-methoxypyridin-4-yl)-2,2-dimethyl-4-(4-(quinolin-2-ylmethoxy)phenyl)furan-3(2H)-one] stands not above 0.05 µM; under `CC1(C)OC(c2ccc(O)nc2)=C(c2ccc(OCc3ccc4ccccc4n3)cc2)C1=O` [Example 132, 5-(6-hydroxypyridin-3-yl)-2,2-dimethyl-4-(4-(quinolin-2-ylmethoxy)phenyl)furan-3(2H)-one], not above 0.05 µM; under `COc1ccc(C2=C(c3ccc(OCc4ccc5ccccc5n4)cc3)C(=O)C(C)(C)O2)cn1` [Example 133, 5-(6-methoxypyridin-3-yl)-2,2-dimethyl-4-(4-(quinolin-2-ylmethoxy)phenyl)furan-3(2H)-one], not above 0.05 µM.
For the compound `COc1ccc(C2=C(c3ccc(OCc4ccc5ccccc5n4)cc3)C(=O)C(C)(C)O2)cc1F` [Example 134, 5-(3-fluoro-4-methoxyphenyl)-2,2-dimethyl-4-(4-(quinolin-2-ylmethoxy)phenyl)furan-3(2H)-one], the IC50 is not above 0.05 µM.
With `COc1ccc(C2=C(c3ccc(OCc4ccc5ccccc5n4)cc3)C(=O)C(C)(C)O2)cc1Cl` [Example 135, 5-(3-Chloro-4-methoxyphenyl)-2,2-dimethyl-4-(4-(quinolin-2-ylmethoxy)phenyl) furan-3(2H)-one] the figure was not above 0.05 µM; with `COc1ccc(C2=C(c3ccc(OCc4ccc5ccccc5n4)cc3)C(=O)C(C)(C)O2)cc1C#N` [Example 137, 5-(5,5-Dimethyl-4-oxo-3-(4-(quinolin-2-ylmethoxy)phenyl)-4,5-dihydrofuran-2-yl)-2-methoxybenzonitrile], not above 0.05 µM; with `COc1ccc(C2=C(c3ccc(OCc4ccc5ccccc5n4)cc3)C(=O)C(C)(C)O2)cc1` [Example 138, 5-(4-Methoxyphenyl)-2,2-dimethyl-4-(4-(quinolin-2-ylmethoxy)phenyl) furan-3(2H)-one], not above 0.05 µM.
In the case of `CC1(C)OC(c2ccc(C#N)cc2)=C(c2ccc(OCc3ccc4ccccc4n3)cc2)C1=O` [Example 141, 4-(5,5-Dimethyl-4-oxo-3-(4-(quinolin-2-ylmethoxy)phenyl)-4,5-dihydrofuran-2-yl)benzonitrile], the IC50 was not above 0.05 µM.
With `CC1(C)OC(c2ccc(Cl)cc2)=C(c2ccc(OCc3ccc4ccccc4n3)cc2)C1=O` [Example 147, 5-(4-Chlorophenyl)-2,2-dimethyl-4-(4-(quinolin-2-ylmethoxy)phenyl) furan-3(2H)-one] the figure was not above 0.05 µM; with `CC1(C)OC(c2ccc(F)cc2)=C(c2ccc(OCc3ccc4ccccc4n3)cc2)C1=O` [Example 153, 5-(4-fluorophenyl)-2,2-dimethyl-4-(4-(quinolin-2-ylmethoxy)phenyl)furan-3(2H)-one], not above 0.05 µM.
With `CC1(C)OC(c2ccc(C(F)(F)F)cc2)=C(c2ccc(OCc3ccc4ccccc4n3)cc2)C1=O` [Example 154, 2,2-dimethyl-4-(4-(quinolin-2-ylmethoxy)phenyl)-5-(4-(trifluoromethyl)phenyl)furan-3(2H)-one] the figure was not above 0.05 µM.
Turning to `CC1(C)OC(c2ccc(OC(F)(F)F)cc2)=C(c2ccc(OCc3ccc4ccccc4n3)cc2)C1=O` [Example 155, 2,2-dimethyl-4-(4-(quinolin-2-ylmethoxy)phenyl)-5-(4-(trifluoromethoxy)phenyl)furan-3(2H)-one], the IC50 was not above 0.05 µM.
Under `CC1(C)OC(c2ccc(CC(F)(F)F)cc2)=C(c2ccc(OCc3ccc4ccccc4n3)cc2)C1=O` [Example 156, 2,2-dimethyl-4-(4-(quinolin-2-ylmethoxy)phenyl)-5-(4-(2,2,2-trifluoroethyl)phenyl)furan-3(2H)-one] stands not above 0.05 µM; under `CCOc1ccc(C2=C(c3ccc(OCc4ccc5ccccc5n4)cc3)C(=O)C(C)(C)O2)cc1` [Example 157, 5-(4-ethoxyphenyl)-2,2-dimethyl-4-(4-(quinolin-2-ylmethoxy)phenyl)furan-3(2H)-one], not above 0.05 µM; under `CC(C)Oc1ccc(C2=C(c3ccc(OCc4ccc5ccccc5n4)cc3)C(=O)C(C)(C)O2)cc1` [Example 158, 5-(4-isopropoxyphenyl)-2,2-dimethyl-4-(4-(quinolin-2-ylmethoxy)phenyl)furan-3(2H)-one], more than 0.05 µM.
As to `CC1(C)OC(c2ccc(OC(F)F)cc2)=C(c2ccc(OCc3ccc4ccccc4n3)cc2)C1=O` [Example 159, 5-(4-(difluoromethoxy)phenyl)-2,2-dimethyl-4-(4-(quinolin-2-ylmethoxy)phenyl)furan-3(2H)-one], the IC50 was not above 0.05 µM.
